The numbers were not newly measured in US20070148074A1, “Nanoparticle based stabilization of ir fluorescent dyes” (priority 2003, published 2007), which cites them from elsewhere.

For series [1] the following is noted: human body, administered intravenously.

For `CC1(C)C(/C=C/C=C/C=C/C=C2\N(CCCCS(=O)(=O)O)c3ccc4ccccc4c3C2(C)C)=[N+](CCCCS(=O)(=O)[O-])c2ccc3ccccc3c21` [ICG, indocyanine green], the “fraction of dye in plasma that is protein-bound” value is roughly 95%. In addition, the elimination half-life in series [1] is 2 to 4 min.
